Laboratory results as given in the NIST ThermoML archive (doi:10.1016/j.fluid.2015.10.027).

Assay: heat capacity at constant pressure per volume; xn = mol fraction of the nth substance listed
Conditions: DSC, x1 = 0.066

Cc1cccc(C)n1 [2,6-dimethylpyridine] + O
Liquid mixture 1
Conditions | heat capacity [J/K/m3]
270.67 K | 3943000
271.17 K | 3939000
271.67 K | 3932000
272.17 K | 3933000
272.67 K | 3929000
273.17 K | 3934000
273.67 K | 3928000
274.17 K | 3930000
274.67 K | 3924000
275.17 K | 3925000
275.67 K | 3922000
276.17 K | 3920000
276.67 K | 3918000
277.17 K | 3918000
277.67 K | 3919000
278.17 K | 3918000
278.67 K | 3916000
279.17 K | 3913000
279.67 K | 3916000
280.17 K | 3914000
280.67 K | 3914000
281.18 K | 3913000
281.68 K | 3910000
282.18 K | 3910000
282.68 K | 3907000
283.18 K | 3907000
283.68 K | 3904000
284.18 K | 3907000
284.68 K | 3905000
285.18 K | 3909000
285.68 K | 3905000
286.18 K | 3903000
286.68 K | 3907000
287.18 K | 3907000
287.68 K | 3910000
288.18 K | 3913000
288.68 K | 3913000
289.18 K | 3912000
289.68 K | 3912000
290.18 K | 3910000
290.68 K | 3913000
291.18 K | 3912000
291.68 K | 3913000
292.18 K | 3916000
292.68 K | 3917000
293.18 K | 3915000
293.68 K | 3911000
294.18 K | 3914000
294.68 K | 3914000
295.18 K | 3913000
295.68 K | 3912000
296.18 K | 3913000
296.68 K | 3912000
297.18 K | 3914000
297.69 K | 3914000
298.19 K | 3918000
298.69 K | 3919000
299.19 K | 3916000
299.78 K | 3918000
299.99 K | 3916000
300.2 K | 3912000
300.41 K | 3920000
300.62 K | 3927000
300.84 K | 3944000
301.05 K | 3932000
301.26 K | 3930000
301.47 K | 3942000
301.69 K | 3950000
301.9 K | 3947000
302.11 K | 3945000
302.32 K | 3932000
302.54 K | 3934000
302.75 K | 3933000
302.96 K | 3962000
303.17 K | 3969000
303.38 K | 3938000
303.6 K | 3938000
303.81 K | 3935000
304.02 K | 3948000
304.23 K | 3973000
304.44 K | 3963000
304.66 K | 3960000
304.87 K | 3953000
305.08 K | 3960000
305.29 K | 3975000
305.51 K | 3976000
305.72 K | 3956000
305.93 K | 4006000
306.14 K | 4011000
306.36 K | 4082000
306.57 K | 4075000

102.6 kPa, Liquid
Conditions | heat capacity [J/K/m3]
306.78 K | 4520000
306.99 K | 4372000
307.2 K | 4347000
307.42 K | 4321000
307.63 K | 4254000
307.84 K | 4227000
308.05 K | 4182000
308.27 K | 4223000
308.48 K | 4199000
308.69 K | 4189000
308.9 K | 4170000
309.12 K | 4188000
309.33 K | 4206000
309.54 K | 4165000
309.75 K | 4175000
309.96 K | 4206000
310.18 K | 4189000
310.39 K | 4172000
310.6 K | 4170000
310.81 K | 4154000
311.03 K | 4103000
311.24 K | 4121000
311.45 K | 4142000
311.66 K | 4101000
311.88 K | 4141000
312.09 K | 4083000
312.3 K | 4117000
312.51 K | 4078000
312.73 K | 4100000
